Measured values reported in patent US5532267A, “Amidinonaphthyl furancarboxylate derivatives and acid addition salts therof” (Torii & Co., Ltd., priority 1992, dated 1996).
Where a name gives a salt, the structure may show the parent alone. Read-outs that look alike come from different tables or passages of the source.

Key:
trypsin = target: T1, trypsin (Bos taurus, UniProt P00760); assay: anti-trypsin activity, hydrolysis of TAME (tosylarginine methyl ester); assay type: biochemical; conditions: hydrolysis of TAME; read-out: Try: molar concentration inhibiting 50% of enzyme activity (IC50)
T1 sequence (P00760 24-246): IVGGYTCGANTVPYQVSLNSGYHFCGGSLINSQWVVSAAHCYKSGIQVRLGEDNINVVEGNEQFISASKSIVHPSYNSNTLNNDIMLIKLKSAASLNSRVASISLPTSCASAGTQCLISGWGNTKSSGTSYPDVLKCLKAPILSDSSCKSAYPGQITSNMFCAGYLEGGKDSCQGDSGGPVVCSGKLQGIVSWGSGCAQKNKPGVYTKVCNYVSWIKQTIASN

thrombin = thrombin (Homo sapiens, UniProt P00734); assay: anti-thrombin activity, hydrolysis of TAME (tosylarginine methyl ester); assay type: biochemical; conditions: hydrolysis of TAME; read-out: Thr: molar concentration inhibiting 50% of enzyme activity (IC50)
Method: (§1) The values in Table 1 represent molar concentrations (IC50) of test compounds which inhibit 50% of the activity of each enzyme to hydrolyze TAME (tosylarginine methyl ester). The anti-trypsin, anti-plasmin, anti-kallikrein and anti-thrombin activities were determined according to the method of Muramatsu et al. (J. Biochem. (1965), volume 58, page 214).

C1r = target: T2, C1r (Homo sapiens, UniProt P00736); assay: anti-complement (anti-C1 esterase) activity, C1r hydrolysis of AAME (acetyl-arginine methyl ester); assay type: biochemical
T2 sequence (P00736 18-705): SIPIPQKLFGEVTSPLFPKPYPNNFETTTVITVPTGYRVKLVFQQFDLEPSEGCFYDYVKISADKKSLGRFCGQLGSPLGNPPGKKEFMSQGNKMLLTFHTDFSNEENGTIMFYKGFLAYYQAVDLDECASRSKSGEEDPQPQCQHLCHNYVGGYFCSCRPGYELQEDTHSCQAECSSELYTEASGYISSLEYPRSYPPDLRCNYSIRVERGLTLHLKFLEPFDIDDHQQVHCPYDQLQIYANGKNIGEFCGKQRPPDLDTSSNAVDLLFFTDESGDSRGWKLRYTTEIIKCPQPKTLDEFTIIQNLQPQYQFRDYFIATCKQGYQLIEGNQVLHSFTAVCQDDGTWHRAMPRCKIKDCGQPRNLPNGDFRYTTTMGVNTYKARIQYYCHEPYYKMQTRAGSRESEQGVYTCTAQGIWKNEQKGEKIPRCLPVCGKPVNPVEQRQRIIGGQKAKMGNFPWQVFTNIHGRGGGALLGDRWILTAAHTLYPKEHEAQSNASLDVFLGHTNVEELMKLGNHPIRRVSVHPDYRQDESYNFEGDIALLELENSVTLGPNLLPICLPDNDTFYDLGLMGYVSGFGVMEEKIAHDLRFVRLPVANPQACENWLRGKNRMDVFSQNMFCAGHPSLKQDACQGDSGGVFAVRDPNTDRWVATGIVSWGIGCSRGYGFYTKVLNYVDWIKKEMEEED

kallikrein = assay: anti-kallikrein activity, hydrolysis of TAME (tosylarginine methyl ester); assay type: biochemical; conditions: hydrolysis of TAME; read-out: Kal: molar concentration inhibiting 50% of enzyme activity (IC50)
Method: as §1

Masugi's nephritis = assay: Effectiveness in treating Masugi's nephritis (experimental glomerulonephritis), protein in urine; assay type: in vivo, rat
Method: […] […] As the index to effectiveness, the protein concentration in urine was determined. That is, when inflammation develops in the kidney, it causes damage to renal tubules, etc., and a resultant increase in protein concentration in urine.

plasmin = plasmin (Homo sapiens, UniProt P00747); assay: anti-plasmin activity, hydrolysis of TAME (tosylarginine methyl ester); assay type: biochemical; conditions: hydrolysis of TAME; read-out: Pla: molar concentration inhibiting 50% of enzyme activity (IC50)
Method: as §1

C1s = target: T3, C1s (Homo sapiens, UniProt P09871); assay: anti-complement (anti-C1 esterase) activity, C1s hydrolysis of ATEE (acetyltyrosine ethyl ester); assay type: biochemical; conditions: hydrolysis of ATEE; read-out: Cls: molar concentration inhibiting 50% of C1s activity (IC50)
T3 sequence (P09871 16-688): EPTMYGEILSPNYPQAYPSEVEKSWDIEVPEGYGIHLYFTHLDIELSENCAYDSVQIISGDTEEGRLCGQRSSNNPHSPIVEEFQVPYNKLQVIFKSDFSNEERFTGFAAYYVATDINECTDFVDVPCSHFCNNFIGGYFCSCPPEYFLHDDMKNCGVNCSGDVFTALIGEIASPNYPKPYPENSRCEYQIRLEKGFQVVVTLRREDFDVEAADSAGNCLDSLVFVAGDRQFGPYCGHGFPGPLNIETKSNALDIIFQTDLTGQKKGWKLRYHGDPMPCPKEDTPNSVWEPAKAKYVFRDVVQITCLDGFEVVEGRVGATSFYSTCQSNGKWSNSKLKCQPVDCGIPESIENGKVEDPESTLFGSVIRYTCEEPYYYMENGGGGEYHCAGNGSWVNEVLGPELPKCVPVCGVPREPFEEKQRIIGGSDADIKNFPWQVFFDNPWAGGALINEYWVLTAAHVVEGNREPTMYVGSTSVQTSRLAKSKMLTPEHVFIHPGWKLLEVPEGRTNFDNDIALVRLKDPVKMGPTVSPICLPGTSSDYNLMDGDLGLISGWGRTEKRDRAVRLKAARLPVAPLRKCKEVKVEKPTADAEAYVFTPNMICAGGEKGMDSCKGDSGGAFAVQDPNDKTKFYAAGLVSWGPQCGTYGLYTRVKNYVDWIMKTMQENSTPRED
Method: The anti-C1 esterase (C1r, C1s) activity was determined according to the method of Okamura et al. (Biochem. Biophys. Acta (1973), volume 295, pages 252-257). […] The values for C1s represent molar concentrations (IC50) of test compounds which inhibit 50% of the activity of C1s to hydrolyze ATEE (acetyltyrosine ethyl ester).

adjuvant arthritis = assay: Effectiveness in treating adjuvant arthritis (Mycobacterium butyricum); assay type: in vivo, rat; conditions: 30 mg/kg, oral, day -1 to day 13
Method: Adjuvant arthritis is known as a representative model of autoimmune diseases and is a effective means of testing agents to treat human rheumatoid arthritis (Encyclopedia of Immunology, edited by I. M. Roitt, Academic Press, 1992; Otterness, I. G., et al., J. of Rheumatology (1991), volume 18, pages 505-511),
The method of experiment was as follows. A 0.6% Mycobacterium butyricum liquid paraffin suspension, 0.1 ml/animal, was administered to a rat at a subcutaneous site of left hind-limb sole to induce adjuvant arthritis. The present compound was orally administered (in the form of a suspension in water) consecutively from 1 day before the induction to 13 days after the induction. The efficacy of the present compound on adjuvant arthritis was evaluated by examining the swelling accompanied by red spots and subcutaneous knots at the fore-limb, hind-limb, tail, ear and periphery of eye with the lapse of days (on the 8th, 10th, 12th, 14th, 16th and 18th days after adjuvant administration), expressing the results in terms of scores according to the method of F. D. Wood et al. (Int. Arch. Allergy (1969), volume 35, pages 456-467), and calculating the percentage inhibition relative to the control group. Thus, the higher value of percentage inhibition indicates the higher effectiveness.

[1] = hydrolysis of AAME, read-out: Clr: molar concentration inhibiting 50% of C1r activity (IC50)
[2] = 30 mg/kg, oral, mean ± standard deviation, 7 animals, control group 40.8 ± 15.1
[3] = 100 mg/kg, oral, mean ± standard deviation, 7 animals, control group 40.8 ± 15.1

plasmin, sequence (P00747 581-810 limits assumed, species assumed): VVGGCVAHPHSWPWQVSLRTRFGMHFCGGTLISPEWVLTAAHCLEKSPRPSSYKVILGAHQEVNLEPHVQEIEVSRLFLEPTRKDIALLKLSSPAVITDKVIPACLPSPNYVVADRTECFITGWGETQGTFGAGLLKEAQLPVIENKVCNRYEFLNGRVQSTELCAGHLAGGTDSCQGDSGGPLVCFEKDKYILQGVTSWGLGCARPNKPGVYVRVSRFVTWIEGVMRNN
plasmin, sequence (P00747 97-580 partner limits assumed, species assumed): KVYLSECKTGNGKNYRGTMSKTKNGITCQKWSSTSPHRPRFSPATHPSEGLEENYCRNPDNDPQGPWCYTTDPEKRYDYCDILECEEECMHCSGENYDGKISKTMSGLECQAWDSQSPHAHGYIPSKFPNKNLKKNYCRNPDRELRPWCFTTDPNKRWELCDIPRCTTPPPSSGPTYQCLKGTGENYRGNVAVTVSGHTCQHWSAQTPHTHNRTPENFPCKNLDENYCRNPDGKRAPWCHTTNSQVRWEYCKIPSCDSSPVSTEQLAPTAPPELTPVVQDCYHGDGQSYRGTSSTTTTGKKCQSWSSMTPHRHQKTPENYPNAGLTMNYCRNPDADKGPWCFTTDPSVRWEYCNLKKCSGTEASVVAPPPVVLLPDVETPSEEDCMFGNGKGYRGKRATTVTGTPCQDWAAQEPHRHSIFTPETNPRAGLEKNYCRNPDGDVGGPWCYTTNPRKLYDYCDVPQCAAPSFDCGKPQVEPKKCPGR

| IC50 (C1r; [1]) [µM] | Structure (SMILES) | IC50 (trypsin) [µM] | IC50 (thrombin) [µM] | IC50 (kallikrein) [µM] | Protein concentration in urine (Masugi's nephritis; [2]) [mg/mL] | IC50 (plasmin) [µM] | IC50 (C1s) [µM] | other results |
| --- | --- | --- | --- | --- | --- | --- | --- | --- |
|  | Cl.N=C(N)c1ccc2cc(OC(=O)c3ccc(CNC(=O)[C@H]4CC[C@H](C(=O)O)CC4)o3)ccc2c1 [Example 11, 6-Amidino-2-naphthyl 5-(trans-4-carboxy-1-cyclohexanoylaminomethyl)furan-2-carboxylate hydrochloride] | 0.66 | 1.2 | 0.87 |  | 0.4 | 0.28 | IC50 (C1r): 1.2 µM; Protein concentration in urine (Masugi's nephritis; po, 30 mg/kg): 33.6 ± 17.8 mg/mL |
|  | Cl.N=C(N)c1ccc2cc(OC(=O)c3ccc(CNC(=O)/C=C/C(=O)O)o3)ccc2c1 [Example 13, 6-Amidino-2-naphthyl 5-(trans-2-carboxyvinyl)carbonylaminomethylfuran-2-carboxylate hydrochloride] |  |  |  | 24.2 ± 16.8 |  |  |  |
|  | Cl.N=C(N)c1ccc2cc(OC(=O)c3ccc(CNC(=O)CCCCC(=O)O)o3)ccc2c1 [Example 23, 6-Amidino-2-naphthyl 5-(5-carboxyvalerylaminomethyl)furan-2-carboxylate hydrochloride] |  |  |  | 24.2 ± 18.8 |  |  |  |
|  | Cl.N=C(N)c1ccc2cc(OC(=O)c3ccc(CNC(=O)CCCCCCCC(=O)O)o3)ccc2c1 [Example 26, 6-Amidino-2-naphthyl 5-(8-carboxyoctanoylaminomethyl)furan-2-carboxylate hydrochloride] |  |  |  | 25.0 ± 15.4 |  |  |  |
| 0.44 | N=C(N)NC(CCC(=O)O)C(=O)NCc1ccc(C(=O)Oc2ccc3cc(C(=N)N)ccc3c2)o1 (centres unmarked) [Example 29, 6-Amidino-2-naphthyl 5-(4-carboxy-2-guanidinobutyrylaminomethyl)furan-2-carboxylate dihydrobromide] | 1.2 | 1.6 | 0.24 |  | 0.23 | 0.36 |  |
| 0.29 | CN(C)C(=O)COC(=O)CCC(=O)NCc1ccc(C(=O)Oc2ccc3cc(C(=N)N)ccc3c2)o1 [Example 31, 6-Amidino-2-naphthyl 5-(3-N,N-dimethylcarbamoylmethoxycarbonylpropionylaminomethyl)furan-2-carboxylate hydrochloride] | 0.6 | 0.15 | 0.17 |  | 0.16 | 0.45 | Percentage inhibition (arthritis score) (adjuvant arthritis): 67.7% |
|  | N=C(N)c1ccc2cc(OC(=O)c3ccc(CNC(=O)CCC(N)=O)o3)ccc2c1 [Example 32, 6-Amidino-2-naphthyl 5-(3-carbamoylpropionylaminomethyl)furan-2-carboxylatehydrochloride] |  |  |  | 22.8 ± 13.9 |  |  |  |
| 0.14 | Cc1oc(=O)oc1COC(=O)CCC(=O)NCc1ccc(C(=O)Oc2ccc3cc(C(=N)N)ccc3c2)o1 [Example 33, 6-Amidino-2-naphthyl 5-{[3-(4-methyl-1,3-dioxole-2-one-5-yl)methoxycarbonyl]propionylaminomethyl}furan-2-carboxylate hydrochloride] | 6.6 | 0.023 | 0.58 |  | 0.084 | 0.22 |  |
|  | Cl.N=C(N)c1ccc2cc(OC(=O)c3ccc(CNC(=O)CCC(=O)NCC(=O)O)o3)ccc2c1 [Example 36, 6-Amidino-2-naphthyl 5-(3-carboxymethylcarbamoylpropionylaminomethyl)furan-2-carboxylate hydrochloride] |  |  |  | 26.2 ± 14.7 |  |  |  |
|  | CCC(C(=O)O)C(=O)NCc1ccc(C(=O)Oc2ccc3cc(C(=N)N)ccc3c2)o1.Cl (centres unmarked) [Example 38, 6-Amidino-2-naphthyl 5-(2-carboxybutyrylaminomethyl)furan-2-carboxylate hydrochloride] |  |  |  | 17.8 ± 12.4 |  |  |  |
|  | CC(CC(=O)O)CC(=O)NCc1ccc(C(=O)Oc2ccc3cc(C(=N)N)ccc3c2)o1.Cl (centres unmarked) [Example 43, 6-Amidino-2-naphthyl 5-(4-carboxy-3-methylbutyrylaminomethyl)furan-2-carboxylate hydrochloride] |  |  |  | 21.8 ± 10.3 |  |  |  |
|  | N=C(N)c1ccc2cc(OC(=O)c3ccc(CNC(=O)CC4(CC(=O)O)CCCC4)o3)ccc2c1 [Example 44, hydrochloride] |  |  |  | 20.0 ± 12.9 |  |  |  |
|  | N=C(N)c1ccc2cc(OC(=O)c3ccc(CNC(=O)c4ccc(NC5=NCCN5)cc4)o3)ccc2c1 [Known compd. I, reference compound] |  |  |  |  |  |  | Protein concentration in urine (Masugi's nephritis; [3]): 24.4 ± 11.9 mg/mL |
|  | N=C(N)c1ccc2cc(OC(=O)c3ccc(CN)o3)ccc2c1 [Known compd. II, reference compound] |  |  |  |  |  |  | Protein concentration in urine (Masugi's nephritis; [3]): 22.1 ± 11.4 mg/mL |

| Structure (SMILES) | IC50 (C1r; [1]) [µM] | IC50 (trypsin) [µM] | IC50 (thrombin) [µM] | IC50 (kallikrein) [µM] | Protein concentration in urine (Masugi's nephritis; [2]) [mg/mL] | IC50 (plasmin) [µM] | IC50 (C1s) [µM] | other results |
| --- | --- | --- | --- | --- | --- | --- | --- | --- |
| Cl.N=C(N)c1ccc2cc(OC(=O)c3ccc(CNC(=O)Cc4ccc(C(=O)O)cc4)o3)ccc2c1 [Example 6, 6-Amidino-2-naphthyl 5-(4-carboxyphenylacetylaminomethyl)furan-2-carboxylate hydrochloride] | 0.023 | 0.39 | 10 | 0.83 | 19.7 ± 11.1 | 0.26 | 0.27 |  |
| COC(=O)CCC(=O)NCc1ccc(C(=O)Oc2ccc3cc(C(=N)N)ccc3c2)o1.Cl [Example 34, 6-Amidino-2-naphthyl 5-(3-methoxycarbonylpropionylaminomethyl)furan-2-carboxylate hydrochloride] | 0.33 | 0.27 | 0.089 | 0.13 | 29.3 ± 18.8 | 0.13 | 0.17 |  |
